Measured values taken from EP0821955B1 (priority 1996, dated 1998).

Columns and labels:
m4 receptors = m4 receptors (Homo sapiens, UniProt P08173); format: cell-based; conditions: Chinese Hamster Ovary (CHO) m4 cells treated with pertussis toxin
[1] = target: muscarinic cholinergic receptors; test: ^3H-oxotremorine-M binding study; conditions: inhibition of the binding of ^3H-oxotremorine-M; read-out: inhibition constant (Ki)

Sequence of m4 receptors (P08173 whole entry): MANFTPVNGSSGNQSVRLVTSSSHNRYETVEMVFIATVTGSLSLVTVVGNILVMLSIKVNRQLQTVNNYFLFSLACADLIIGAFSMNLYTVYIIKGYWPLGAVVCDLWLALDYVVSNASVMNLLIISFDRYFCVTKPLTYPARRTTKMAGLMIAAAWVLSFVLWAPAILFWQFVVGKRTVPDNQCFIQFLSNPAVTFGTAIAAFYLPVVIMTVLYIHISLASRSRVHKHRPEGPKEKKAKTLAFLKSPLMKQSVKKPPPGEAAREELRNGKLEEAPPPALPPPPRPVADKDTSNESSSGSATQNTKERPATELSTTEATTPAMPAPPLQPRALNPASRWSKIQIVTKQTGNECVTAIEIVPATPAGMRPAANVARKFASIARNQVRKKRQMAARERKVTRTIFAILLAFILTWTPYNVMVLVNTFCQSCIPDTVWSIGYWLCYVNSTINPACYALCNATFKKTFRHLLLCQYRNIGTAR

SMILES: CCCCCCOc1nsnc1C1=CCCN(C)C1 [xanomeline, 3-(4-hexyloxy-1,2,5-thiadiazol-3-yl)-1,2,5,6-tetrahydro-1-methylpyridine]
- formation of cAMP (m4 receptors): efficaciously and potently stimulated the formation of cAMP
- Ki [1]: 2 nM
